In patent US20100317621A1, “BETA-LACTAMASE INHIBITORS” (priority 2007, published 2010):

Key:
SHV-5 β-lactamase = biological target: T1, SHV-5 β-lactamase (Klebsiella pneumoniae, UniProt P0A3M1); test: biochemical; assay type: biochemical, Escherichia coli; settings: crude enzyme extract, 10 min preincubation at 37° C., nitrocefin 100 μM, PBS pH 7.0; read-out: SHV-5 IC50 Range
T1 construct: The β-lactamases were extracted by four cycles of freezing and thawing followed by centrifugation; endogenous in cells; host or cells: Escherichia coli cells containing SHV-5 (crude freeze-thaw extract)
Protocol: (§1) Isolation of β-lactamases. Crude β-lactamase extracts were prepared from 20 ml overnight cultures with shaking. Escherichia coli cells containing SHV-5 or CTXM-15 and Enterobacter cloacae cells containing P99 were further diluted 10-fold and grown to mid-log phase (OD at 600 nm, 0.5-0.8) in Mueller-Hinton II (MH-II) broth at 37° C. The cells were pelleted at 5000 g, washed and resuspended in 2 mL PBS pH 7.0. The β-lactamases were extracted by four cycles of freezing and thawing followed by centrifugation. β-lactamase activity in the extracts was measured with the chromogenic cephalosporin nitrocefin. The amount of protein in each β-lactamase preparation was determined by the bicinchoninic acid (BCA) assay.
(§2) β-lactamase Inhibition. To determine the level of inhibition of β-lactamase enzymes, compounds were diluted in PBS at pH 7.0 to yield concentrations between 100 and 0.005 μM in microtiter plates. An equal volume of diluted enzyme stock was added, and the plates were incubated at 37° C. for 10 min. Nitrocefin solution was then dispensed as substrate into each well at a final concentration of 100 μM, and the plates were immediately read with the kinetic program at 486 nm for 10 min on the SPECTRAMAX® Plus^384 (high-throughput microplate spectrophotometer; Molecular Devices Corp., Sunnyvale, Calif.). Maximum rates of metabolism were then compared to those in control wells (without inhibitors), and percentages of enzyme inhibition were calculated for each concentration of inhibitor. The concentration of inhibitor needed to reduce the initial rate of hydrolysis of substrate by 50% (IC50) was calculated as the residual activity of β-lactamase at 486 nm using the SoftMax Pro 5.0 software (Molecular Devices Corp.).

CTXM-15 β-lactamase = biological target: T2, CTXM-15 β-lactamase (Escherichia coli, UniProt Q9EXV5); test: biochemical; assay type: biochemical; settings: crude enzyme extract, 10 min preincubation at 37° C., nitrocefin 100 μM, PBS pH 7.0; read-out: CTXM-15 IC50 Range
T2 construct: The β-lactamases were extracted by four cycles of freezing and thawing followed by centrifugation; endogenous in cells; host or cells: Escherichia coli cells containing CTXM-15 (crude freeze-thaw extract)
Protocol: as §1, §2

P99 AmpC β-lactamase = biological target: T3, P99 AmpC β-lactamase (Enterobacter cloacae, UniProt P05364); test: biochemical; assay type: biochemical; settings: crude enzyme extract, 10 min preincubation at 37° C., nitrocefin 100 μM, PBS pH 7.0; read-out: P99 AmpC IC50 Range
T3 construct: The β-lactamases were extracted by four cycles of freezing and thawing followed by centrifugation; endogenous in cells; host or cells: Enterobacter cloacae cells containing P99 (crude freeze-thaw extract)
Protocol: as §1, §2

[1] = test system: E. coli expressing the Class A ESBL SHV-5; assay type: cell-based; settings: in the presence of fixed 8 μg/mL ceftazidime; CAMHB, 16-20 hours at 37° C.
Excerpt: (§3) To determine the ability of test compounds to potentiate the inhibition of the growth of bacterial strains producing beta-lactamase enzymes, classic cell based screening assays were employed. Four bacteria strains producing beta-lactamase enzymes were used: E. coli expressing the Class A Extended Spectrum Beta-Lactamase (ESBL) CTX-M-15, E. coli expressing the Class A ESBL SHV-5, E. cloacae expressing the Class C P99+, and K. pneumoniae expressing the Class A carbapenemase KPC-2. In order to evaluate the ability of test compounds to inhibit beta-lactamase activity, Applicants used a modification of the broth microdilution assay. The assay was conducted in Cation Adjusted Mueller Hinton Broth (CAMHB, BD #212322, BD Diagnostic Systems, Sparks, Md.). Bacteria strains were grown for 3-5 hours in CAMBH broth. All four strains were grown in presence of 50 μg/mL ampicillin to ensure resistance is maintained. In the meantime, test compounds were diluted in DMSO to a 0.1 mg/mL stock. The compounds were added to a microtiter plate and were diluted in 2-fold serial dilutions in CAMHB in a final concentration range of 32 μg/mL to 0.25 μg/mL. An overlay of CAMHB containing a cephalosporin was added to the compounds at a final static concentration of 8 μg/mL. […] Each of these compound plates are made in quadruplicate, one for each bacteria strain. In addition to the titration of test compounds the MICs of a panel of cephalosporins is also tested to ensure the strains are behaving consistently from test to test. Once the test compound and cephalosporin are added the plates can be inoculated. Inocula are conducted according to CLSI broth microdilution method. After inoculation the plates are incubated for 16-20 hours at 37° C. then the Minimal Inhibitory Concentration (MIC) of the test compound is determined visually.
(§4) Using the methodology described above, examples of the current invention were evaluated for their ability to inhibit the growth of β-lactamase producing bacteria in the presence of a β-lactam antibiotic.

[2] = test system: E. coli expressing the Class A ESBL CTX-M-15; assay type: cell-based; settings: in the presence of fixed 8 μg/mL cefotaxime; CAMHB, 16-20 hours at 37° C.
Excerpt: as §3, §4

[3] = test system: K. pneumoniae expressing the Class A carbapenemase KPC-2; assay type: cell-based; settings: in the presence of fixed 8 μg/mL ceftazidime; CAMHB, 16-20 hours at 37° C.
Excerpt: as §3, §4

[4] = test system: E. cloacae expressing the Class C P99+; assay type: cell-based; settings: in the presence of fixed 8 μg/mL ceftazidime; CAMHB, 16-20 hours at 37° C.
Excerpt: as §3, §4

T2 sequence (Q9EXV5 29-291): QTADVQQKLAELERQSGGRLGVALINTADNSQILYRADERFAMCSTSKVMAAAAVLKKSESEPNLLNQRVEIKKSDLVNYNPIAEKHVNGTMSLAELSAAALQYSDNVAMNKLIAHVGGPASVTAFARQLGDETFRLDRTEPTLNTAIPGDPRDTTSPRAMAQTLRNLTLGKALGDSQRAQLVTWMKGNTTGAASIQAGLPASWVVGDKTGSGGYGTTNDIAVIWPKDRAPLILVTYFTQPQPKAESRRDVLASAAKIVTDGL
T3 sequence (P05364 21-381): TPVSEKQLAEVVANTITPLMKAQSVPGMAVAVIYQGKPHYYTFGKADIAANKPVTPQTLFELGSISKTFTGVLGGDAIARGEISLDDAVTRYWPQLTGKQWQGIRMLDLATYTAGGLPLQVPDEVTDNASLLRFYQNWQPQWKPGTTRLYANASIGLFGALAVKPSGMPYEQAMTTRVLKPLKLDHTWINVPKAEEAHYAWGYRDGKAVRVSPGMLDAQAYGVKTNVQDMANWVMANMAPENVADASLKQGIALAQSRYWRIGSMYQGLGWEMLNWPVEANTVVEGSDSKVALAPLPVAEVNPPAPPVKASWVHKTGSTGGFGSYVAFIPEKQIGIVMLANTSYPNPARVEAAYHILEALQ
T1 sequence (P0A3M1 22-286): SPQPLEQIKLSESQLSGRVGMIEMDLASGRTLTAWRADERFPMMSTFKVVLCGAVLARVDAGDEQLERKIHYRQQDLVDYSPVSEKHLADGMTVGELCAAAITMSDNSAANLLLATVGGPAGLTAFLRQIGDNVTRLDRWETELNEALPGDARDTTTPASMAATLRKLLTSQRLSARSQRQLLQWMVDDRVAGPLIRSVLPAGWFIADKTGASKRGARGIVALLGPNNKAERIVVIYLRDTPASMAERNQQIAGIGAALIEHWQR

Compound	IC50 (SHV-5 β-lactamase)	IC50 (CTXM-15 β-lactamase)	IC50 (P99 AmpC β-lactamase)	MIC of example compound, E. coli SHV-5 + 8 μg/mL CAZ [1]	MIC of example compound, E. coli CTXM-15 + 8 μg/mL TAX [2]	MIC of example compound, K. pneumoniae KPC-2 + 8 μg/mL CAZ [3]	MIC of example compound, E. cloacae P99+ + 8 μg/mL CAZ [4]
O=C(Cc1ccsc1)N[C@@H](Cc1cccc(C(=O)O)c1)B(O)O [Example 29, (1R)-1-(2-thiophene-3-yl-acetylamino)-2-(3-carboxyphenyl)ethyl-1-boronic acid]	< 100 nM	100 to 1000 nM	100 to 1000 nM	8 µg/mL	C (C represents an MIC of <2 μg/mL)	B (B represents an MIC between 2 and 32 μg/mL)	A (A represents an MIC>32 μg/mL)
O=C(Cc1cccc(O)c1)N[C@@H](Cc1cccc(C(=O)O)c1)B(O)O [Example 22, (1R)-1-(3-Hydroxyphenylacetylamino)-2-(3-carboxyphenyl)ethyl-1-boronic acid]	< 100 nM	< 100 nM	100 to 1000 nM	C (C represents an MIC of <2 μg/mL)	B (B represents an MIC between 2 and 32 μg/mL)	B (B represents an MIC between 2 and 32 μg/mL)	B (B represents an MIC between 2 and 32 μg/mL)
O=C(CCC(=O)C1CC1)N[C@@H](Cc1cccc(C(=O)O)c1)B(O)O [Example 36, (1R)-1-(4-Cyclopropyl-4-oxo-butyrylamino)-2-(3-carboxyphenyl)ethyl-1-boronic acid]	> 1000 nM	–	> 1000 nM	B (B represents an MIC between 2 and 32 μg/mL)	B (B represents an MIC between 2 and 32 μg/mL)	–	B (B represents an MIC between 2 and 32 μg/mL)
COc1ccc(CC(=O)N[C@@H](Cc2cccc(C(=O)O)c2)B(O)O)cc1OC [Example 11, (1R)-1-(3,4-Dimethoxyphenylacetylamino)-2-(3-carboxyphenyl)ethyl-1-boronic acid]	< 100 nM	< 100 nM	100 to 1000 nM	B (B represents an MIC between 2 and 32 μg/mL)	B (B represents an MIC between 2 and 32 μg/mL)	A (A represents an MIC>32 μg/mL)	B (B represents an MIC between 2 and 32 μg/mL)
O=C(CCC(=O)c1cccs1)N[C@@H](Cc1cccc(C(=O)O)c1)B(O)O [Example 12, (1R)-1-(4-Oxo-4-thiophen-2-yl-butyrylamino)-2-(3-carboxyphenyl)ethyl-1-boronic acid]	100 to 1000 nM	100 to 1000 nM	< 100 nM	B (B represents an MIC between 2 and 32 μg/mL)	B (B represents an MIC between 2 and 32 μg/mL)	B (B represents an MIC between 2 and 32 μg/mL)	B (B represents an MIC between 2 and 32 μg/mL)
O=C(Cc1ccc(O)cc1)N[C@@H](Cc1cccc(C(=O)O)c1)B(O)O [Example 34, (1R)-1-(4-Hydroxyphenylacetylamino)-2-(3-carboxyphenyl)ethyl-1-boronic acid]	< 100 nM	100 to 1000 nM	< 100 nM	B (B represents an MIC between 2 and 32 μg/mL)	B (B represents an MIC between 2 and 32 μg/mL)	–	B (B represents an MIC between 2 and 32 μg/mL)
NC(=O)COc1cccc(CC(=O)N[C@@H](Cc2cccc(C(=O)O)c2)B(O)O)c1 [Example 33, (1R)-1-[2-(3-Carbamoylmethoxy-phenyl)-acetylamino}-2-(3-carboxyphenyl)ethyl-1-boronic acid]	< 100 nM	< 100 nM	100 to 1000 nM	B (B represents an MIC between 2 and 32 μg/mL)	B (B represents an MIC between 2 and 32 μg/mL)	–	B (B represents an MIC between 2 and 32 μg/mL)
